The nature of series [1]: H+/Na+ transport assay of bead-derived peptides (one-point).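 Further: relative to parent gramicidin A activity set to 1.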 Format: biochemical. Also on record: key: relative activity; mean of two control wells = 1.00. The conditions noted are these: bead-derived peptide solution, EYPC/EYPG LUVs. The gist of the method: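 Pyranine (1.0 mM)-loaded LUVs containing egg yolk phosphatidylglycerol were prepared by film hydration, sonication and extrusion, then mixed with diluted bead-derived peptide in 96-well format and vortexed 30 min at room temperature. Fluorescence was normalized between untreated LUVs (0%) and Triton X-100 lysis (100%).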

Series [2] relates to Streptococcus pyogenes SSI-9. As to the kind of experiment: Antibacterial activity assay of bead-derived peptides (three concentrations). Also on record: key: +++: inhibition by the 640-fold diluted peptide solution; ++: inhibition by the 160-fold diluted solution; +: inhibition by the 40-fold diluted solution; -: no inhibition. The conditions noted are these: S. pyogenes, bead-derived peptide solution, three concentrations. It is filed as cell-based. The procedure, abridged: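 First, each peptide stock was diluted 4- and 16-fold in DMSO; next, the three solutions were mixed with S. pyogenes SSI-9 suspension (2 × 10^5 CFU) in cation-adjusted Mueller Hinton Broth plus 5% laked horse blood; finally, plates stood 18 h at 37 °C before checking for grown-cell precipitation.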

For series [3] the following is noted: cell viability/%. The gist of the method: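 Peptide stocks diluted 250× in growth medium; P388 cells 1 × 10^4 cells/mL final; 37 °C, 5% CO2, 92 h. WST-1 + 1-methoxy PMS, 4 h, A415. Output: % viability.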

Where a SMILES comes first, the peptide text is derived from it. [ ]: non-standard residue; d: D form. The star is where a group is joined. NHCH2CH2OH = OCCN*; For = O=C*

As usually defined, the viability is a per cent measure of how many cells are alive, often set against a control.

Turning to `CC(C)C[C@@H](NC(=O)[C@H](C)NC(=O)[C@H](NC(=O)[C@H](C)NC(=O)CNC(=O)[C@@H](NC=O)C(C)C)[C@H](C)O)C(=O)N[C@H](C(=O)N[C@H](CC(C)C)C(=O)N[C@@H](Cc1c[nH]c2ccccc12)C(=O)N[C@@H](C(=O)N[C@@H](Cc1c[nH]c2ccccc12)C(=O)N[C@H](CC(C)C)C(=O)N[C@@H](Cc1c[nH]c2ccccc12)C(=O)N[C@H](CC(C)C)C(=O)N[C@@H](Cc1c[nH]c2ccccc12)C(=O)NCCO)C(C)C)C(C)C` [compound 4687] (For-VGA[dT]A[dL]V[dL]W[dV]W[dL]W[dL]W-NHCH2CH2OH), the “H+/Na+ transport activity normalized against the value of 1 (1.00)” value (shortened to “H+/Na+ transport activity normalized”) in series [1] turned out to be 1.04. In addition, the antibacterial activity result in series [2] is “-”. Besides, the viability in series [3] amounted to 94.4%.
As to `CC(C)C[C@@H](NC(=O)[C@H](C)NC(=O)CNC(=O)[C@@H](NC=O)C(C)C)C(=O)N[C@@H](C)C(=O)N[C@H](CC(C)C)C(=O)N[C@H](C(=O)N[C@@H](C(=O)N[C@@H](Cc1c[nH]c2ccccc12)C(=O)N[C@@H](C(=O)N[C@@H](Cc1c[nH]c2ccccc12)C(=O)N[C@@H](C(=O)N[C@@H](Cc1c[nH]c2ccccc12)C(=O)N[C@H](CC(C)C)C(=O)N[C@@H](Cc1c[nH]c2ccccc12)C(=O)NCCO)C(C)C)C(C)C)[C@H](C)O)C(C)C` [compound 4784] (For-VGA[dL]A[dL]V[dT]W[dV]W[dV]W[dL]W-NHCH2CH2OH), in series [1], the “H+/Na+ transport activity normalized” value was 1.19. For the same compound, in series [2], the antibacterial activity entry is “-”. The compound also displayed a viability in series [3] of 100%.
For `CC(C)C[C@@H](NC(=O)[C@H](C)NC(=O)CNC(=O)[C@@H](NC=O)C(C)C)C(=O)N[C@@H](C)C(=O)N[C@@H](C(=O)N[C@H](C(=O)N[C@H](CC(C)C)C(=O)N[C@@H](Cc1c[nH]c2ccccc12)C(=O)N[C@@H](C(=O)N[C@@H](Cc1c[nH]c2ccccc12)C(=O)N[C@H](CC(C)C)C(=O)N[C@@H](Cc1c[nH]c2ccccc12)C(=O)N[C@@H](C(=O)N[C@@H](Cc1c[nH]c2ccccc12)C(=O)NCCO)[C@H](C)O)[C@H](C)O)C(C)C)C(C)C` [compound 4868] (For-VGA[dL]A[dV]V[dL]W[dT]W[dL]W[dT]W-NHCH2CH2OH) the same measures were 1.06, “-” and 100%.
For `CNC(=O)C[C@@H](NC(=O)[C@H](Cc1c[nH]c2ccccc12)NC(=O)[C@@H](CC(C)C)NC(=O)[C@H](Cc1c[nH]c2ccccc12)NC(=O)[C@H](NC(=O)[C@H](Cc1c[nH]c2ccccc12)NC(=O)[C@H](NC(=O)[C@@H](NC(=O)[C@H](NC(=O)[C@H](C)NC(=O)[C@@H](CC(C)C)NC(=O)[C@H](C)NC(=O)CNC(=O)[C@@H](NC=O)C(C)C)C(C)C)C(C)C)C(C)C)C(C)C)C(=O)N[C@@H](Cc1c[nH]c2ccccc12)C(=O)NCCO` [compound 4898] (For-VGA[dL]A[dV]V[dV]W[dV]W[dL]W[dD](NHMe)W-NHCH2CH2OH) the same measures were 1.21, “-” and 100%.
For `CC(C)C[C@@H](NC(=O)[C@H](C)NC(=O)CNC(=O)[C@@H](NC=O)C(C)C)C(=O)N[C@@H](C)C(=O)N[C@H](CC(C)C)C(=O)N[C@H](C(=O)N[C@H](CC(C)C)C(=O)N[C@@H](Cc1c[nH]c2ccccc12)C(=O)N[C@H](CC(C)C)C(=O)N[C@@H](Cc1c[nH]c2ccccc12)C(=O)N[C@H](CC(C)C)C(=O)N[C@@H](Cc1c[nH]c2ccccc12)C(=O)N[C@@H](C(=O)N[C@@H](Cc1c[nH]c2ccccc12)C(=O)NCCO)[C@H](C)O)C(C)C` [compound 5006] (For-VGA[dL]A[dL]V[dL]W[dL]W[dL]W[dT]W-NHCH2CH2OH) the same measures were 1.12, “-” and 100%.
Turning to `CC(C)C[C@@H](NC(=O)[C@H](C)NC(=O)CNC(=O)[C@@H](NC=O)C(C)C)C(=O)N[C@@H](C)C(=O)N[C@@H](C(=O)N[C@H](C(=O)N[C@@H](C(=O)N[C@@H](Cc1c[nH]c2ccccc12)C(=O)N[C@@H](C(=O)N[C@@H](Cc1c[nH]c2ccccc12)C(=O)N[C@@H](C(=O)N[C@@H](Cc1c[nH]c2ccccc12)C(=O)N[C@H](CC(C)C)C(=O)N[C@@H](Cc1c[nH]c2ccccc12)C(=O)NCCO)C(C)C)C(C)C)C(C)C)C(C)C)C(C)C` [compound 5056] (For-VGA[dL]A[dV]V[dV]W[dV]W[dV]W[dL]W-NHCH2CH2OH), the “H+/Na+ transport activity normalized” value in series [1] amounted to 1.01. Further, the antibacterial activity entry in series [2] is reported as “+”. The compound further came in with a viability in series [3] of 100%.
The like results for `CNC(=O)C[C@@H](NC(=O)[C@H](C)NC(=O)[C@H](NC(=O)[C@H](C)NC(=O)CNC(=O)[C@@H](NC=O)C(C)C)C(C)C)C(=O)N[C@H](C(=O)N[C@@H](C(=O)N[C@@H](Cc1c[nH]c2ccccc12)C(=O)N[C@@H](C(=O)N[C@@H](Cc1c[nH]c2ccccc12)C(=O)N[C@H](CC(C)C)C(=O)N[C@@H](Cc1c[nH]c2ccccc12)C(=O)N[C@H](CC(C)C)C(=O)N[C@@H](Cc1c[nH]c2ccccc12)C(=O)NCCO)C(C)C)C(C)C)C(C)C` [compound 5211] (For-VGA[dV]A[dD](NHMe)V[dV]W[dV]W[dL]W[dL]W-NHCH2CH2OH) were, in that order, 1.05, “-” and 100%.
The like results for `CNC(=O)C[C@@H](NC(=O)[C@H](Cc1c[nH]c2ccccc12)NC(=O)[C@H](NC(=O)[C@@H](NC(=O)[C@@H](CC(C)C)NC(=O)[C@H](C)NC(=O)[C@@H](CC(C)C)NC(=O)[C@H](C)NC(=O)CNC(=O)[C@@H](NC=O)C(C)C)C(C)C)C(C)C)C(=O)N[C@@H](Cc1c[nH]c2ccccc12)C(=O)N[C@@H](C(=O)N[C@@H](Cc1c[nH]c2ccccc12)C(=O)N[C@@H](C(=O)N[C@@H](Cc1c[nH]c2ccccc12)C(=O)NCCO)C(C)C)C(C)C` [compound 5255] (For-VGA[dL]A[dL]V[dV]W[dD](NHMe)W[dV]W[dV]W-NHCH2CH2OH) were, in that order, 1.25, “-” and 100%.
With `CNC(=O)C[C@@H](NC(=O)[C@H](Cc1c[nH]c2ccccc12)NC(=O)[C@@H](CC(C)C)NC(=O)[C@@H](NC(=O)[C@@H](CC(C)C)NC(=O)[C@H](C)NC(=O)[C@H](NC(=O)[C@H](C)NC(=O)CNC(=O)[C@@H](NC=O)C(C)C)[C@H](C)O)C(C)C)C(=O)N[C@@H](Cc1c[nH]c2ccccc12)C(=O)N[C@H](CC(C)C)C(=O)N[C@@H](Cc1c[nH]c2ccccc12)C(=O)N[C@H](CC(C)C)C(=O)N[C@@H](Cc1c[nH]c2ccccc12)C(=O)NCCO` [compound 5284] (For-VGA[dT]A[dL]V[dL]W[dD](NHMe)W[dL]W[dL]W-NHCH2CH2OH), the “H+/Na+ transport activity normalized” value in series [1] was 1.02. In addition, in series [2], the antibacterial activity entry is listed as “-”. Besides, in series [3], the viability was 100%.
`CC(C)C[C@@H](NC(=O)[C@H](C)NC(=O)CNC(=O)[C@@H](NC=O)C(C)C)C(=O)N[C@@H](C)C(=O)N[C@@H](C(=O)N[C@H](C(=O)N[C@@H](C(=O)N[C@@H](Cc1c[nH]c2ccccc12)C(=O)N[C@@H](C(=O)N[C@@H](Cc1c[nH]c2ccccc12)C(=O)N[C@@H](C(=O)N[C@@H](Cc1c[nH]c2ccccc12)C(=O)N[C@@H](C(=O)N[C@@H](Cc1c[nH]c2ccccc12)C(=O)NCCO)C(C)C)C(C)C)C(C)C)C(C)C)C(C)C)[C@H](C)O` [compound 5343] (For-VGA[dL]A[dT]V[dV]W[dV]W[dV]W[dV]W-NHCH2CH2OH): the “H+/Na+ transport activity normalized” value in series [1] was 1.33. Further, the antibacterial activity result in series [2] is “-”. Moreover, the viability in series [3] turned out to be 100%.
For `CC(C)C[C@@H](NC(=O)[C@H](C)NC(=O)[C@H](NC(=O)[C@H](C)NC(=O)CNC(=O)[C@@H](NC=O)C(C)C)[C@H](C)O)C(=O)N[C@H](C(=O)N[C@H](CC(C)C)C(=O)N[C@@H](Cc1c[nH]c2ccccc12)C(=O)N[C@@H](C(=O)N[C@@H](Cc1c[nH]c2ccccc12)C(=O)N[C@@H](C(=O)N[C@@H](Cc1c[nH]c2ccccc12)C(=O)N[C@H](CC(C)C)C(=O)N[C@@H](Cc1c[nH]c2ccccc12)C(=O)NCCO)C(C)C)[C@H](C)O)C(C)C` [compound 5532] (For-VGA[dT]A[dL]V[dL]W[dT]W[dV]W[dL]W-NHCH2CH2OH) the same measures were 1.06, “-” and 100%.
With `CNC(=O)C[C@@H](NC(=O)[C@@H](NC(=O)[C@H](NC(=O)[C@H](C)NC(=O)[C@H](NC(=O)[C@H](C)NC(=O)CNC(=O)[C@@H](NC=O)C(C)C)C(C)C)C(C)C)C(C)C)C(=O)N[C@@H](Cc1c[nH]c2ccccc12)C(=O)N[C@H](CC(C)C)C(=O)N[C@@H](Cc1c[nH]c2ccccc12)C(=O)N[C@@H](C(=O)N[C@@H](Cc1c[nH]c2ccccc12)C(=O)N[C@@H](C(=O)N[C@@H](Cc1c[nH]c2ccccc12)C(=O)NCCO)C(C)C)C(C)C` [compound 5536] (For-VGA[dV]A[dV]V[dD](NHMe)W[dL]W[dV]W[dV]W-NHCH2CH2OH), the “H+/Na+ transport activity normalized” value in series [1] amounted to 1.45. The antibacterial activity result in series [2] was “-”. In addition, the viability in series [3] came out at 100%.
